Results: US5858995A, “Benzofuran derivatives useful as inhibitors of bone resorption” (Fujisawa Pharmaceutical Co., Ltd., priority 1994, dated 1999)

System: PTH-induced bone resorption (calvariae)
Experiment: Bone organ culture: inhibition of PTH-induced bone resorption in rat calvariae
Type: cell-based
Settings: Compound dose = 1 × 10^-5 (M); calvariae from Wistar rats, 10^-8 M human PTH (1-34); calcium in medium after six days
Description: Test (Bone organ culture)
Calvariae from Wistar rats were excised and cultured in wells of 12-well culture plates containing 2 ml of Dulbecco's modified minimum essential medium supplemented with 10% fetal bovine serum and 10^-8 M human parathyroid hormone fragment (1-34) [PTH] in the presence of the test compound. In control dishes, PTH was not added. Control and PTH control were exposed to an equivalent concentration of the vehicle. Six days later, the concentration of calcium in the medium was measured by methylxylenol blue method and the percentage of inhibition of PTH-induced bone resorption was calculated according to following formula. [formula] Test Result

Structure (SMILES): Cc1oc2c(NC(=O)c3c(Cl)cccc3Cl)cccc2c1C [Test Compound (1), 7-(2,6-Dichlorobenzoylamino)-2,3-dimethylbenzo[b]furan]
- Inhibition (%) of PTH-induced bone resorption: 100%
